Columns and labels:
BMDM [1] = assay: Cytotoxicity against M-CSF stimulated C57BL/6 mouse bone marrow macrophage cells at 1 to 10 uM after 4 days by XTT assay; type: cell-based; conditions: 96 h
BMDM [2] = assay: Inhibition of M-CSF/RANKL-induced osteoclast differentiation in C57BL/6 mouse bone marrow macrophage after 4 days by TRAP-staining based microscopic analysis; type: functional, cell-based
[3] = Inhibition of M-CSF/RANKL-induced osteoclast differentiation in C57BL/6 mouse bone marrow macrophage assessed as reduction in multinucleated TRAP+ cells after 4 days by TRAP-staining based microscopic analysis; type: functional, cell-based; conditions: C57BL/6, BMDM, 96 h
BMDM [4] = assay: Cytotoxicity against M-CSF stimulated C57BL/6 mouse bone marrow macrophage cells at 3 to 30 uM after 4 days by XTT assay; type: cell-based; conditions: 96 h

SMILES	IC50 [3] [µM]	Activity (BMDM [1])	inhibition (BMDM [2])	Activity (BMDM [4])
CC1(C)CCC[C@]2(C)[C@@H]3C(=C[C@H](OC(=O)/C=C/c4ccc(O)cc4)[C@@H]12)CO[C@H]3O	2.1	Non-Toxic	Dose-dependent effect	
CC1(C)CCC[C@]2(C)[C@H](O)C(C=O)=C[C@H](OC(=O)/C=C/c3ccccc3)[C@@H]12	8.5	Non-Toxic	Dose-dependent effect	
CC1(C)CCC[C@]2(C)[C@@H]3C(=C[C@H](OC(=O)/C=C/c4ccccc4)[C@@H]12)CO[C@H]3O	10.7		Dose-dependent effect	Non-Toxic
CO[C@@H]1OC(=O)C2=C[C@H](OC(=O)/C=C/c3ccccc3)[C@H]3C(C)(C)CCC[C@]3(C)[C@H]21	10.1	Non-Toxic	Dose-dependent effect	

Now those with a lower IC50 [3], led by results:

IC50 [3] [µM]	SMILES	Activity (BMDM [1])	inhibition (BMDM [2])	Activity (BMDM [4])
1.6	CC1(C)CCC[C@]2(C)C3=C(COC3=O)C[C@H](OC(=O)/C=C/c3ccccc3)[C@@H]12	Non-Toxic	Dose-dependent effect	
0.9	CC1(C)CCC[C@]2(C)C3=C(COC3=O)C[C@H](OC(=O)/C=C/c3ccc(O)cc3)[C@@H]12	Non-Toxic	Dose-dependent effect	

— ChEMBL document CHEMBL4334506, “Xylodon flaviporus-Derived Drimane Sesquiterpenoids That Inhibit Osteoclast Differentiation” (J Nat Prod, 2019)
